NC(N)=O
solubility (mole fraction)
Settings	in ethanol	in isobutanol	in isopentanol	in isopropanol	in methanol	in n-butanol	in n-pentanol	in n-propanol	in water
293.15 K	0.0395	0.017	0.0146	0.0253	0.0845	0.0163	0.0137	0.0246	0.252
303.15 K	0.0548	0.0242	0.0162	0.0306	0.104	0.0209	0.0183	0.0402	0.294
318.15 K	0.0874	0.0302	0.026	0.0425	0.165	0.0292	0.0241	0.0384	0.36
333.15 K	0.127	0.0469	0.0368	0.058	0.225	0.0412	0.0354	0.0722	0.41
343.15 K	0.155	0.0529	0.0451	0.0669	0.266	0.0504	0.0424	0.0704	0.465
